Reference: patent US11065231B2, “Compounds and methods for the targeted degradation of interleukin-1 receptor- associated kinase 4 polypeptides” (Arvinas Operations, Inc., priority 2017, dated 2021)
Each block holds one compound with its values, some of them ahead of it.

Tests used:
[1] = target: T1, IRAK4 (Homo sapiens (Human), UniProt Q9NWZ3); experiment: Western blot assay for assessing degradation of IRAK4 in MCF7 cells; type: cell-based; conditions: Table 5, IRAK4 degradation, 24 hour incubation; for DC50: read-out: IRAK4 DC50; for Dmax: read-out: IRAK4 Dmax (%)
Method: Western Blot Assay for Assessing Degradation of IRAK4.
MCF7 cells, purchased from ATCC (Manassas, Va.), were used at a passage range of 2-19. Cells were seeded at 50% confluency in 96-well plates at 180 μl/well in cell media (Dulbecco's Modified Eagle medium/nutrient F-12 Ham-10% Fetal Bovine Serum) and incubated overnight. The next morning, compounds were serially diluted and added (20 μl into 180 μl media) at a final DMSO concentration of 0.1%. Cells were rinsed with cell media and replaced with compounds in media, followed by incubation overnight. After a 24 hour incubation with compound, cell were harvested (90-100% confluent at harvest). Cells were then washed once with 100 μl of Dulbecco's hosphate-buffered saline and then lysed with 40 μl of lysis buffer (1×RIPA+HALT protease inhibitor+HALT phosphatase inhibitor) on ice for 10 minutes. Lysates were then cleaned by filtration in 1.2 µm filter plates followed by western blotting. For each sample, 30 μl of lysate were added to 10 μl of 4×LDS sample buffer, then denatured at 95° C. for 5 minutes in the thermal cycler and placed on ice. Fifteen μL of each sample were then loaded on 4-15% Tris/Glycine gels and run for 25 minutes at 250 (constant) volts in 1× Tris/Glycine buffer. Protein was transferred from gels to nitrocellulose using a BioRad Turbo dry-transfer unit with the Turbo/midi default program. All blots were rinsed with ddH2O and blocked for 1 hour at room temperature in 5% bovine serum albumin (BSA) in tris-buffered saline-Tween 20 (TBS-T) (0.1%) on rocker. Blots were exposed to primary antibody in 5% BSA in TBS-T (0.1%) overnight at 4° C. on rocker. Primary antibodies, diluted 1:1000 in […], were as follows: anti-IRAK4 (cat. #: ab119942, Abcam, Cambridge, Mass.), anti-IRAK1 (cat. #: CST 4504S, Cell Signaling Technology, Danvers, Mass.), and anti-Beta-actin (Cat. #: ab8227, Abcam, Cambridge, Mass.). Blots were then washed with TBS-T (0.1%) three times for 5 minutes on a rocker at room temperature. Secondary antibody (1:18,000 anti-rabbit-HRP and/or anti-mouse-HRP in 5% BSA in TBST (0.1%) was then added, and blots incubated at room temperature rocker for 1 hour. Blots were washed 3 times in TBS-T (0.1%) for 5 minutes at room temperature on the rocker. Signal was developed with Femto Max substrate for 5 minutes and blots read on a ChemiDoc. Percent degradation was assessed by comparing IRAK4 signal in compound vs. DMSO treated lysates.

[2] = target: T1, IRAK4; experiment: Biochemical Z'-Lyte FRET assay for IRAK4 kinase inhibition; conditions: 2 nM enzyme, 1 mM ATP, 2 μM substrate
Method: Biochemical Assay for IRAK4 Kinase Inhibition.
A Z′-Lyte assay based on a fluorescence resonance energy transfer (FRET) readout was developed for measuring IRAK4-dependent phosphorylation of a FRET-peptide substrate as described by Thermo Fisher Scientific (Grand Island, N.Y.). At a starting concentration of 1.5 mM, the identified compounds were serially diluted with 100% dimethyl sulfoxide (DMSO) in 3-fold increments, into Greiner bio-one 96-well plates (cat. #: 650201, Greiner bio-one, Monroe, N.C.). Compounds were then transferred to intermediate Greiner bio-one 96-well plates and diluted 10-fold with Kinase assay buffer (25 mM HEPES, pH 7.5, 10 mM MgCl2, 10 mM MnCl2, 1 mM EGTA, and 0.01% Brij-35, 2 mM DTT). Three μL of the serially diluted compounds were then transferred in duplicate to low-volume 384-well black proxiplates (cat. #: 6008269; Perkin Elmer, Akron, Ohio), to give duplicate twelve-point concentration curves. Six μl of a 2.5× solution of IRAK4 enzyme (cat #: 40064, BPS Bioscience, San Diego, Calif.) in kinase buffer was added to each well, followed by a 10 minutes pre-incubation step. Reactions were initiated by adding 6 μl of a 2.5× substrate mix of ATP and Z′-Lyte Ser/Thr 7 peptide (cat. #: PV3180, Thermo Fisher Scientific, Grand Island, N.Y.) and proceeded at room temperature for 1 hour. The final concentration of key reagents in the 15 uL kinase reactions were 2 μM substrate, 2 nM enzyme, and 1 mM ATP, with dose responses starting at 30 μM compound. At the end of the kinase reactions, 5 μl of developing solution (as instructed in for cat. #: PV3180, Thermo Fisher Scientific, Grand Island, N.Y.) was added to each well and incubated at room temperature for 1 hour. All wells were read on an Envision 2105 Multilabel fluorescence plate reader (Perkin Elmer, Waltham, Mass.) at 400 nm excitation and 460 nm/530 nm emission. Plus and minus 100% inhibition controls were used to calculate percent inhibition and IC50 curves were generated using Graphpad Prism (La Jolla, Calif.).

T1 sequence (Q9NWZ3 whole entry): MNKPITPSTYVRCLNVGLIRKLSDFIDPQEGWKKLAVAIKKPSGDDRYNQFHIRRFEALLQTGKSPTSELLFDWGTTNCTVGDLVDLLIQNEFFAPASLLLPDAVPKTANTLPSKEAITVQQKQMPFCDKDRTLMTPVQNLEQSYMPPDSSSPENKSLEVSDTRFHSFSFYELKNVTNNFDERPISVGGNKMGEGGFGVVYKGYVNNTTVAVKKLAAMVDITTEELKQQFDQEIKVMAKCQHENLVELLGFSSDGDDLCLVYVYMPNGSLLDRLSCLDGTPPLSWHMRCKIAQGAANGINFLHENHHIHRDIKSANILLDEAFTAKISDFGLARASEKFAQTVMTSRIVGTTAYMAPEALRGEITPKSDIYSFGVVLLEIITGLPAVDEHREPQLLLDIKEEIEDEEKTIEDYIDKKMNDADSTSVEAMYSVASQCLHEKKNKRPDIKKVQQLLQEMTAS

SMILES: O=C1CCC(N2C(=O)c3ccc(OCCN4CCN(Cc5ccc6c(c5)nc(NC(=O)c5cccc(C(F)(F)F)c5)n6C5CCC(CO)CC5)CC4)cc3C2=O)C(=O)N1 (stereo not drawn) [compound 1, N-(5-((4-(2-((2-(2,6-dioxopiperidin-3-yl)-1,3-dioxoisoindolin-5-yl)oxy)ethyl)piperazin-1-yl)methyl)-1-((1s,4s)-4-(hydroxymethyl)cyclohexyl)-1H-benzo[d]imidazol-2-yl)-3-(trifluoromethyl)benzamide]
Dmax [1]: 30 to 50%

SMILES: N#Cc1ccc2ncnc(N[C@H]3CC[C@H](N4CCN(S(=O)(=O)CCOCCOCCOCCOc5ccc6c(c5)C(=O)N(C5CCC(=O)NC5=O)C6=O)CC4)CC3)c2c1 (stereo partly drawn) [compound 38]
IC50 [2]: ≥ 1 µM

SMILES: N#Cc1ccc2ncnc(N[C@H]3CC[C@@H](N4CCN(S(=O)(=O)CCOCCOCCOc5ccc6c(c5)C(=O)N(C5CCC(=O)NC5=O)C6=O)CC4)CC3)c2c1 (stereo partly drawn) [compound 37]
IC50 [2]: ≥ 1 µM

SMILES: N#Cc1ccc2ncnc(N[C@H]3CC[C@@H](N4CCN(S(=O)(=O)CCOCCOCCOCCOc5ccc6c(c5)C(=O)N(C5CCC(=O)NC5=O)C6=O)CC4)CC3)c2c1 (stereo partly drawn) [compound 39]
IC50 [2]: ≥ 1 µM

SMILES: O=C1CCC(N2C(=O)c3ccc(OCCOCCOCCOCC4CCC(n5c(NC(=O)c6cccc(C(F)(F)F)c6)nc6cc(CN7CCCCC7)ccc65)CC4)cc3C2=O)C(=O)N1 (stereo not drawn) [compound 43, N-(1-((1s,4s)-4-((2-(2-(2-((2-(2,6-dioxopiperidin-3-yl)-1,3-dioxoisoindolin-5-yl)oxy)ethoxy)ethoxy)ethoxy)methyl)cyclohexyl)-5-(piperidin-1-ylmethyl)-1H-benzo[d]imidazol-2-yl)-3-(trifluoromethyl)benzamide]
DC50 [1]: ≥ 1 µM

SMILES: O=C1CCC(N2C(=O)c3ccc(OCCN4CCC(CN5CCN(Cc6ccc7c(c6)nc(NC(=O)c6cccc(C(F)(F)F)c6)n7C6CCC(CO)CC6)CC5)CC4)cc3C2=O)C(=O)N1 (stereo not drawn) [compound 10]
Dmax [1]: > 70%

Further lines, results first:

DC50 [1]: 0.03 to 0.1 µM | Dmax [1]: > 70%
SMILES: O=C1CCC(N2C(=O)c3ccc(OC4CCC(CN5CCN(Cc6ccc7c(c6)nc(NC(=O)c6cccc(C(F)(F)F)c6)n7C6CCC(CO)CC6)CC5)CC4)cc3C2=O)C(=O)N1 (stereo not drawn) [compound 67, N-(5-((4-((4-((2-(2,6-dioxopiperidin-3-yl)-1,3-dioxoisoindolin-5-yl)oxy)cycloethyl)methyl)piperazin-1-yl)methyl)-1-((1s,4s)-4-(hydroxymethyl)cyclohexyl)-1H-benzo[d]imidazol-2-yl)-3-(trifluoromethyl)benzamide]

IC50 [2]: ≥ 1 µM
SMILES: O=C1CCC(N2C(=O)c3ccc(OCCOC[C@H]4CC[C@@H](n5c(NC(=O)c6cccc(C(F)(F)F)c6)nc6cc(F)ccc65)CC4)cc3C2=O)C(=O)N1 (stereo partly drawn) [compound 45]

IC50 [2]: ≥ 1 µM
SMILES: COc1cccc(-n2c(NC(=O)c3cccc(C(F)(F)F)c3)nc3cc(CN4CCN(CCOCCOc5ccc6c(c5)C(=O)N(C5CCC(=O)NC5=O)C6=O)CC4)ccc32)c1 (stereo not drawn) [compound 57, N-(5-((4-(2-(2-((2-(2,6-dioxopiperidin-3-yl)-1,3-dioxoisoindolin-5-yl)oxy)ethoxy)ethyl)piperazin-1-yl)methyl)-1-(3-methoxyphenyl)-1H-benzo[d]imidazol-2-yl)-3-(trifluoromethyl)benzamide]

Dmax [1]: 50 to 70%
SMILES: O=C1CCC(N2C(=O)c3cccc(NCCOCCOCCN4CCN(Cc5ccc6c(c5)nc(NC(=O)c5cccc(C(F)(F)F)c5)n6C5CCC(CO)CC5)CC4)c3C2=O)C(=O)N1 (stereo not drawn) [compound 66, N-(5-((4-(2-(2-(2-((2-(2,6-dioxopiperidin-3-yl)-1,3-dioxoisoindolin-4-yl)amino)ethoxy)ethoxy)ethyl)piperazin-1-yl)methyl)-1-((1s,4s)-4-(hydroxymethyl)cyclohexyl)-1H-benzo[d]imidazol-2-yl)-3-(trifluoromethyl)benzamide]

IC50 [2]: < 0.03 µM
SMILES: COc1cc2nn(C3CCN(CCOCCOCCOCCNc4cccc5c4C(=O)N(C4CCC(=O)NC4=O)C5=O)CC3)cc2cc1NC(=O)c1cccc(C(F)(F)F)n1 (stereo not drawn) [compound 64, N-(2-(1-(2-(2-(2-(2-((2-(2,6-dioxopiperidin-3-yl)-1,3-dioxoisoindolin-4-yl)amino)ethoxy)ethoxy)ethoxy)ethyl)piperadin-4-yl)-6-methoxy-2H-indazol-5-yl)-6-(trifluoromethyl)picolinamide]
